Some test systems named below: MALME-3M melanoma; PC-3 prostate; HOP-62 NSCLC; RXF 393 renal; KM12 colon; SNB-19 CNS; HCT-15 colon; T-47D breast; MCF7 breast; MDA-MB-231 breast.
Experiment in all cases: growth of human tumour cells (NCI), 48 h

Values joined by “and” are separate entries in the source; they are usually repeats but may differ in a detail not shown here. Equal entries are not always repeated.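 48-hour exposure; five concentrations; linearly interpolated endpoints. GI50 marks 50% less growth. The concentration for full growth arrest is given as TGI.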

In PubChem BioAssay (NCI) one finds GI50 and TGI data, which are given here for eight compounds.

Take `COc1cc2c(cc1O)CCN[C@@]21CS[C@H]2c3c(OC(C)=O)c(C)c4c(c3C(COC1=O)N1C2C2NC(Cc3cc(C)c(OC)c(O)c32)[C@@H]1O)OCO4` (some centres not stated): the GI50 was 0.000122 ng/mL with MALME-3M melanoma; 4.5 ng/mL in the test on RXF 393 renal; 0.00461 ng/mL and 4.5 ng/mL in the test on HCT-15 colon. In addition, the TGI in the test on MALME-3M melanoma is 0.000506 ng/mL; with PC-3 prostate, less than 10 nM; with HOP-62 NSCLC, < 10 nM and 3.8e-07 µg/mL and 0.0045 µg/mL; in the test on RXF 393 renal, < 10 nM and 1.9e-07 µg/mL and 0.0045 µg/mL; in the test with KM12 colon, 11300 nM; in the test on SNB-19 CNS, 11400 nM. Also, the TGI was 45.3 nM with T-47D breast, 10500 nM in the test with MCF7 breast and less than 10 nM in the test on MDA-MB-231 breast.
In the case of `Oc1ccccc1/C=N\NC(=S)Nc1ccc(F)cc1`, the GI50 is 1200 nM in the test with MALME-3M melanoma; 7810 nM with PC-3 prostate; 832 nM in the test with HOP-62 NSCLC; 2630 nM in the test on RXF 393 renal; 799 nM with KM12 colon; 2320 nM in the test with SNB-19 CNS. In addition, the GI50 with HCT-15 colon was 529 nM; in the test with T-47D breast, 3340 nM; in the test with MCF7 breast, 888 nM; in the test with MDA-MB-231 breast, 1740 nM. Moreover, the TGI in the test with MALME-3M melanoma was 8350 nM; in the test on PC-3 prostate it was greater than 100000 nM; in the test with HOP-62 NSCLC, greater than 65000 nM; with RXF 393 renal, 65800 nM; in the test on KM12 colon, 45000 nM; with SNB-19 CNS it was greater than 100000 nM. Besides, the TGI was greater than 100000 nM in the test with HCT-15 colon, 60100 nM in the test on T-47D breast, greater than 100000 nM with MCF7 breast and greater than 100000 nM in the test on MDA-MB-231 breast.
For the compound `COc1cc2c3c(c4ccc(O)cc4c2cc1OC)[C@@H](O)[C@@H]1CCCN1C3`, the TGI with MALME-3M melanoma was found to be 3.14 nM; in the test with PC-3 prostate, 175 nM; in the test with HOP-62 NSCLC, 42.1 nM; with RXF 393 renal, 2.9 nM; in the test on KM12 colon it was 8.37 nM; in the test on SNB-19 CNS, 2.16 nM. The TGI was 204 nM in the test with HCT-15 colon, 2.16 nM with T-47D breast, less than 1 nM in the test on MCF7 breast and 7.8 nM in the test with MDA-MB-231 breast.
On to `CN1CCN(Cc2ccc(NC(=O)c3cncc(C#Cc4c(N)ncc5ccccc45)c3)cc2C(F)(F)F)CC1`, for which the GI50 is 310 nM in the test on MALME-3M melanoma; 687 nM with PC-3 prostate; 733 nM with HOP-62 NSCLC; 708 nM with RXF 393 renal; 5 nM in the test with KM12 colon; 924 nM in the test with SNB-19 CNS. Moreover, the GI50 with HCT-15 colon is 293 nM; with T-47D breast, 831 nM; in the test on MCF7 breast, 198 nM; in the test with MDA-MB-231 breast, 336 nM. In addition, the TGI came to 979 nM in the test on MALME-3M melanoma; 1730 nM in the test with PC-3 prostate; 1660 nM in the test on HOP-62 NSCLC; 1390 nM with RXF 393 renal; 618 nM in the test with KM12 colon; 1760 nM with SNB-19 CNS. For the same compound, the TGI in the test with HCT-15 colon stood at 998 nM; in the test on T-47D breast, 1660 nM; in the test on MCF7 breast, 853 nM; with MDA-MB-231 breast, 1040 nM.
In the case of `Cc1cnc(C(=O)Nc2nc3ccc(S(=O)(=O)Nc4ccc(C(C)(C)C)cc4)cc3[nH]2)cn1`, the GI50 is 590 nM in the test on MALME-3M melanoma; 402 nM in the test on PC-3 prostate; 785 nM with HOP-62 NSCLC; 312 nM in the test with RXF 393 renal; 349 nM with KM12 colon; 591 nM in the test with SNB-19 CNS. Moreover, the GI50 was 304 nM in the test with HCT-15 colon, 592 nM in the test with T-47D breast, 338 nM in the test with MCF7 breast and 1410 nM with MDA-MB-231 breast. Further, the TGI in the test on MALME-3M melanoma came out at 14500 nM; with PC-3 prostate, 8310 nM; in the test with HOP-62 NSCLC it was 18800 nM; in the test on RXF 393 renal it was 1860 nM; with KM12 colon, 11000 nM; with SNB-19 CNS, 13700 nM. For the same compound, the TGI was determined as 3090 nM in the test with HCT-15 colon, 20800 nM with T-47D breast, 11300 nM in the test with MCF7 breast and 10700 nM with MDA-MB-231 breast.
Consider `CSc1ccc(-c2cn3ccsc3n2)cc1`, for which the GI50 in the test with MALME-3M melanoma was 22100 nM; in the test on PC-3 prostate, 18900 nM; in the test on HOP-62 NSCLC, 34600 nM; in the test on RXF 393 renal, 5190 nM; with KM12 colon it was 24400 nM; with SNB-19 CNS, 43500 nM. In addition, the GI50 is 9760 nM in the test on HCT-15 colon, 8530 nM in the test on T-47D breast, 1330 nM with MCF7 breast and 31800 nM in the test on MDA-MB-231 breast. Moreover, the TGI with MALME-3M melanoma was greater than 72600 nM; in the test with PC-3 prostate it was greater than 100000 nM; in the test with HOP-62 NSCLC, greater than 100000 nM; in the test with RXF 393 renal, greater than 92000 nM; with KM12 colon, greater than 100000 nM; in the test on SNB-19 CNS, greater than 100000 nM. The TGI with HCT-15 colon, with T-47D breast, in the test with MCF7 breast and in the test with MDA-MB-231 breast was greater than 100000 nM throughout.
For the compound `COc1cc(C(=O)/C=C/c2c[nH]c3ccccc23)cc(OC)c1OC`, the GI50 is 38.1 nM with MALME-3M melanoma; less than 21.2 nM with PC-3 prostate; 21.2 nM in the test with HOP-62 NSCLC; 23.8 nM in the test on RXF 393 renal; 21.7 nM with KM12 colon; 34.2 nM in the test on SNB-19 CNS. For the same compound, the GI50 is less than 18.7 nM in the test on HCT-15 colon, 39.3 nM with T-47D breast, 85.7 nM with MCF7 breast and 132 nM in the test with MDA-MB-231 breast. In addition, the TGI is 18000 nM with MALME-3M melanoma; 27900 nM in the test on PC-3 prostate; 29000 nM in the test with HOP-62 NSCLC; 34700 nM in the test on RXF 393 renal; 11200 nM in the test with KM12 colon; greater than 57300 nM with SNB-19 CNS. Also, the TGI in the test on HCT-15 colon was determined as 19400 nM; in the test on T-47D breast, 18400 nM; in the test on MCF7 breast, 15000 nM; in the test with MDA-MB-231 breast it was 12400 nM.
Turning to `CNC(=O)c1sc(-n2cnc3cc(OC)c(OC)cc32)cc1OCc1ccccc1C(F)(F)F`, the GI50 is greater than 25000 nM in the test on MALME-3M melanoma; greater than 25000 nM in the test with PC-3 prostate; greater than 25000 nM in the test with HOP-62 NSCLC; greater than 25000 nM with RXF 393 renal; greater than 25000 nM in the test on KM12 colon; greater than 23600 nM with SNB-19 CNS. The GI50 is greater than 25000 nM in the test on HCT-15 colon, 19900 nM with T-47D breast, greater than 25000 nM in the test on MCF7 breast and 15900 nM in the test with MDA-MB-231 breast. In addition, the TGI in the test on MALME-3M melanoma, with PC-3 prostate, with HOP-62 NSCLC, in the test with RXF 393 renal, with KM12 colon and in the test with SNB-19 CNS was greater than 25000 nM throughout. Moreover, the TGI with HCT-15 colon, in the test with T-47D breast, in the test on MCF7 breast and in the test on MDA-MB-231 breast was greater than 25000 nM throughout.
